Data on 23 compounds can be found in patent US11524960B2, “Heterobicyclic inhibitors of MAT2A and methods of use for treating cancer” (AGIOS PHARMACEUTICALS, INC., priority 2018, dated 2022).

The test system of assay [1] is SAM in HCT116 human colon carcinoma cell line engineered to delete the MTAP gene (MTAP −/−). Description: Cellular assay of target engagement (SAM) by LC-MS/MS. The assay is classed as cell-based. To be noted: Homo sapiens, HCT-116, 72 h, IC50 score, read-out: Cell 72 h SAM Inhibition (MTAP −/−; Example 276). An outline of the steps: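 Intracellular SAM, the MAT2A product, was measured by quantitative LC-MS/MS against a d3-SAM standard in methanol/acetic acid extracts. Extracts came from HCT116 MTAP −/− cells exposed for 72 h at 37 °C to a ten-point, threefold dilution series of compound, added one day after seeding.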

The subject of the next assay is HCT116 MTAP−/−. Description: Inhibition of cellular proliferation (Cell Titer Glo), HCT116 MTAP−/−. The assay is classed as cell-based, human. The settings on record: Homo sapiens, HCT-116, 96 h, 4 days, IC50 score, read-out: 4 Day Relative Growth Inhibition (MTAP −/−; Example 277). Put shortly: (§1)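 Proliferation was read as ATP luminescence (Cell Titer Glo) after a 4-day, 37 °C exposure of HCT116 cells differing only in MTAP deletion status. Dosing was 10 points, 3-fold steps, added 24 h post-plating; signal minus blank, relative to 0.2% DMSO control wells, was plotted against log molar concentration.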
Background: In ATP-based viability assays light output follows the ATP content of the culture.

For another assay, the system named is HCT116 MTAP+/+. Description: Inhibition of cellular proliferation (Cell Titer Glo), HCT116 MTAP+/+. Type of assay: cell-based, human. The settings on record: Homo sapiens, HCT-116, 96 h, 4 days, IC50 score, read-out: 4 Day Relative Growth Inhibition (MTAP +/+; Example 277). Put shortly:
as §1

The target of a further assay is T1, MAT2A homodimer (Homo sapiens, UniProt P31153).
T1 construct: inferred from Ni sepharose purification and imidazole elution; made in house; host or cells: Sf9 insect cells, recombinant baculovirus (Bac to Bac, pFASTBAC1)
Description: Biochemical assay: inhibition of MAT2A (phosphate release, PiColorLock Gold). To be noted: MAT2A IC50 score; read-out: Enzyme Inhibition (Example 275). Put shortly:
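Phosphate formed alongside SAM was read with PiColorLock Gold and quantified against a potassium phosphate standard curve. Reactions ran 60 min at 25 °C after adding a substrate mix of 500 μM ATP and 400 μM L-methionine (mix concentrations). Compound had first been preincubated 60 min with recombinant Sf9-derived MAT2A homodimer ([…]) in pH 8.0 Tris buffer containing MgCl2, KCl, EDTA and BSA.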

Where only a bound is given, the exact number is not on record here.

T1 sequence (P31153 whole entry): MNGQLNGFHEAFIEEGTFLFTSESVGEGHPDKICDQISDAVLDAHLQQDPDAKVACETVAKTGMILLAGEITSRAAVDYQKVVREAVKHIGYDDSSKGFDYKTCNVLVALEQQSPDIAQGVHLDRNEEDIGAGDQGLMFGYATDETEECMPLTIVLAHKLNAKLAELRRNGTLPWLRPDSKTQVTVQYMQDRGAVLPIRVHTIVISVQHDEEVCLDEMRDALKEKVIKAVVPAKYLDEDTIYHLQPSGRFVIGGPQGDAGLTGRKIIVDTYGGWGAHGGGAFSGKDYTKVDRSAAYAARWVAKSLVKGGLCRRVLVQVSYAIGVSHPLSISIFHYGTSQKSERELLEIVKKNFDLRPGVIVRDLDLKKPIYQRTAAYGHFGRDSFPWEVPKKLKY

On to `O=c1c(-c2ccc(C3CC3)cc2)c2nc(NCC(F)(F)F)ncc2cn1-c1ccc2ncccc2c1` [Example 168, 8-(4-cyclopropylphenyl)-6-(quinolin-6-yl)-2-((2,2,2-trifluoroethyl)amino)pyrido[4,3-d]pyrimidin-7(6)-one], for which the IC50 was below 100 nM in assay [1], below 100 nM in the assay with HCT116 MTAP−/−, above 10000 nM in the assay with HCT116 MTAP+/+ and below 100 nM at MAT2A homodimer.

For the compound `Cn1cc2cc(-n3cc4ccc(OCC(F)(F)F)nc4c(-c4ccc(C5CC5)nc4)c3=O)ccc2n1` [Example 113-A], the IC50 is below 100 nM in assay [1], below 100 nM in the assay on HCT116 MTAP−/−, 100 to 10000 nM in the assay with HCT116 MTAP+/+ and below 100 nM at MAT2A homodimer.

Consider `COc1ccc(-c2c(=O)n(-c3ccc4nccnc4c3)cc3cnc(NCC(F)(F)F)nc23)cc1` [Example 144, 8-(4-methoxyphenyl)-6-(quinoxalin-6-yl)-2-((2,2,2-trifluoroethyl)amino)pyrido[4,3-d]pyrimidin-7(6H)-one], for which the IC50 in assay [1] is 100 to 1000 nM; in the assay on HCT116 MTAP−/−, 100 to 10000 nM; with HCT116 MTAP+/+, above 10000 nM; on MAT2A homodimer it was below 100 nM.

Regarding `CCOc1ccc2cn(-c3ccc4nn(CCS(C)(=O)=O)cc4c3)c(=O)c(-c3ccc(OC(F)F)cc3)c2n1` [Example 108-A], the IC50 in assay [1] is below 100 nM; with HCT116 MTAP−/−, below 100 nM; in the assay on HCT116 MTAP+/+ it was 100 to 10000 nM; on MAT2A homodimer it was below 100 nM.

As to `Cn1cc2cc(-n3cc4ccc(CCC(F)(F)F)nc4c(-c4ccc(Cl)cc4)c3=O)ccc2n1` [Example 138-A, 8-(4-chlorophenyl)-6-(2-methyl-2H-indazol-5-yl)-2-(3,3,3-trifluoropropyl)-1,6-naphthyridin-7(6H)-one], the IC50 in assay [1] is 100 to 1000 nM; in the assay on HCT116 MTAP−/−, 100 to 10000 nM; in the assay with HCT116 MTAP+/+, 100 to 10000 nM; on MAT2A homodimer, below 100 nM.

In the case of `CCn1cnc2ccc(-n3cc4cnc(NCC(F)(F)F)nc4c(-c4ccc(Cl)cc4)c3=O)cc21` [Example 141, 8-(4-chlorophenyl)-6-(1-ethyl-1H-benzo[d]imidazol-6-yl)-2-((2,2,2-trifluoroethyl)amino)pyrido[4,3-d]pyrimidin-7(6H)-one], the IC50 in assay [1] is below 100 nM; in the assay with HCT116 MTAP−/− it was below 100 nM; with HCT116 MTAP+/+, above 10000 nM; on MAT2A homodimer, below 100 nM.

Turning to `CCOc1ccc2cn(-c3ccc(OC)cc3)c(=O)c(-c3ccc(OC(F)F)nc3)c2n1` [Example 129-A], the IC50 in assay [1] was below 100 nM; with HCT116 MTAP−/− it was 100 to 10000 nM; with HCT116 MTAP+/+, 100 to 10000 nM; at MAT2A homodimer, below 100 nM.

As to `CCOc1ccc2cn(-c3ccc4ncncc4c3)c(=O)c(-c3ccc(Cl)cc3)c2n1` [Example 246, 8-(4-chlorophenyl)-2-ethoxy-6-(quinazolin-6-yl)-1,6-naphthyridin-7(6H)-one], the IC50 in assay [1] was 100 to 1000 nM; in the assay with HCT116 MTAP−/− it was 100 to 10000 nM; with HCT116 MTAP+/+ it was 100 to 10000 nM; at MAT2A homodimer, below 100 nM.

For `CCOc1ccc2cn(-c3ccc4nn(C)cc4c3)c(=O)c(-c3ccc(CF)nc3)c2n1` [Example 137-A, 2-ethoxy-8-(6-(fluoromethyl)pyridin-3-yl)-6-(2-methyl-2H-indazol-5-yl)-1,6-naphthyridin-7(6H)-one], the IC50 in assay [1] was below 100 nM; in the assay on HCT116 MTAP−/− it was below 100 nM; with HCT116 MTAP+/+, 100 to 10000 nM; at MAT2A homodimer, below 100 nM.

Regarding `CCNc1ncc2cn(-c3ccc4nn(C)cc4c3)c(=O)c(-c3ccc(OC(F)F)cc3)c2n1` [Example 171, 8-(4-(difluoromethoxy)phenyl)-2-(ethylamino)-6-(2-methyl-2H-indazol-5-yl)pyrido[4,3-d]pyrimidin-7(6H)-one], the IC50 was below 100 nM in assay [1], below 100 nM with HCT116 MTAP−/−, above 10000 nM in the assay on HCT116 MTAP+/+ and below 100 nM at MAT2A homodimer.

As for `CCNc1ncc2cn(-c3ccc4nn(C)cc4c3)c(=O)c(-c3ccc(Cl)cc3)c2n1` [Example 169, 8-(4-chlorophenyl)-2-(ethylamino)-6-(2-methyl-2H-indazol-5-yl)pyrido[4,3-d]pyrimidin-7(6H)-one], the IC50 in assay [1] was below 100 nM; with HCT116 MTAP−/− it was below 100 nM; in the assay with HCT116 MTAP+/+, above 10000 nM; at MAT2A homodimer, below 100 nM.

Turning to `CCOc1nc2c(-c3ccc(Cl)cc3)c(=O)n(-c3ccc4nn(C)cc4c3)cc2cc1C` [Example 134-A], the IC50 in assay [1] is below 100 nM; in the assay with HCT116 MTAP−/− it was below 100 nM; with HCT116 MTAP+/+, above 10000 nM; on MAT2A homodimer, below 100 nM.

Turning to `Cn1cc2cc(-n3cc4cnc(NCC(F)(F)F)nc4c(-c4ccc(Cl)cc4)c3=O)ccc2n1` [Example 123, 8-(4-chlorophenyl)-6-(2-methyl-2H-indazol-5-yl)-2-((2,2,2-trifluoroethyl)amino)pyrido[4,3-d]pyrimidin-7(6H)-one], the IC50 in assay [1] is below 100 nM; with HCT116 MTAP−/− it was below 100 nM; in the assay with HCT116 MTAP+/+, 100 to 10000 nM; at MAT2A homodimer it was below 100 nM.

On to `CCOc1ccc2cn(-c3ccc4nn(C)cc4c3)c(=O)c(-c3ccc(C)nc3)c2n1` [Example 219, 2-ethoxy-6-(2-methyl-2H-indazol-5-yl)-8-(6-methylpyridin-3-yl)-1,6-naphthyridin-7(6H)-one], for which the IC50 is below 100 nM in assay [1], below 100 nM in the assay with HCT116 MTAP−/−, 100 to 10000 nM with HCT116 MTAP+/+ and below 100 nM on MAT2A homodimer.

In the case of `Cn1cnc2ccc(-n3cc4ccc(OCC(F)(F)F)nc4c(-c4ccc(Cl)cc4)c3=O)cc21` [Example 255, 8-(4-chlorophenyl)-6-(1-methyl-1H-benzo[d]imidazol-6-yl)-2-(2,2,2-trifluoroethoxy)-1,6-naphthyridin-7(6H)-one], the IC50 is below 100 nM in assay [1], below 100 nM with HCT116 MTAP−/−, above 10000 nM with HCT116 MTAP+/+ and below 100 nM on MAT2A homodimer.

For the compound `COc1ccc(-c2c(=O)n(-c3ccc4nccn4c3)cc3cnc(NCC(F)(F)F)nc23)cc1` [Example 143, 6-(imidazo[1,2-a]pyridin-6-yl)-8-(4-methoxyphenyl)-2-((2,2,2-trifluoroethyl)amino)pyrido[4,3-d]pyrimidin-7(6H)-one], the IC50 in assay [1] is 100 to 1000 nM; with HCT116 MTAP−/− it was 100 to 10000 nM; with HCT116 MTAP+/+ it was above 10000 nM; at MAT2A homodimer, below 100 nM.

Consider `COc1ccc(-n2cc3cnc(NCC(F)(F)F)nc3c(-c3ccc(CCO)cc3)c2=O)cc1` [Example 205, 8-(4-(2-hydroxyethyl)phenyl)-6-(4-methoxyphenyl)-2-(2,2,2-trifluoroethylamino)pyrido[4,3-d]pyrimidin-7(6H)-one], for which the IC50 in assay [1] was below 100 nM; in the assay on HCT116 MTAP−/−, 100 to 10000 nM; in the assay with HCT116 MTAP+/+ it was above 10000 nM; on MAT2A homodimer, below 100 nM.

For the compound `CCOc1cc(C)c2cn(-c3ccc4nn(C)cc4c3)c(=O)c(-c3ccc(Cl)cc3)c2n1` [Example 122-A], the IC50 is below 100 nM in assay [1], below 100 nM in the assay with HCT116 MTAP−/−, 100 to 10000 nM with HCT116 MTAP+/+ and below 100 nM at MAT2A homodimer.

Turning to `COc1ccc(-n2cc3cnc(NCC(F)(F)F)nc3c(-c3ccc(-c4cc[nH]n4)cc3)c2=O)cc1` [Example 202, 8-(4-(H-pyrazol-3-yl)phenyl)-6-(4-methoxyphenyl)-2-((2,2,2-trifluoroethyl)amino)pyrido[4,3-d]pyrimidin-7(6H)-one], the IC50 is 100 to 1000 nM in assay [1], 100 to 10000 nM in the assay with HCT116 MTAP−/−, above 10000 nM with HCT116 MTAP+/+ and below 100 nM on MAT2A homodimer.

Turning to `Cn1cc2cc(-n3cc4ccc(OCC(F)(F)F)nc4c(-c4ccc(OC(F)F)nc4)c3=O)ccc2n1` [Example 110-A], the IC50 was below 100 nM in assay [1], below 100 nM in the assay on HCT116 MTAP−/−, 100 to 10000 nM with HCT116 MTAP+/+ and below 100 nM at MAT2A homodimer.

As to `Cn1cc2cc(-n3cc4ccc(SCC(F)(F)F)nc4c(-c4ccc(Cl)cc4)c3=O)ccc2n1` [Example 209, 8-(4-chlorophenyl)-6-(2-methyl-2H-indazol-5-yl)-2-((2,2,2-trifluoroethyl)thio)-1,6-naphthyridin-7(6H)-one], the IC50 in assay [1] was below 100 nM; in the assay on HCT116 MTAP−/− it was below 100 nM; in the assay with HCT116 MTAP+/+, above 10000 nM; at MAT2A homodimer it was below 100 nM.

Take `Cn1cnc2ccc(-n3cc4ccc(OCC(F)(F)F)nc4c(-c4ccc(OC(F)F)cc4)c3=O)cc21` [Example 257, 8-(4-(difluoromethoxy)phenyl)-6-(1-methyl-1H-benzo[d]imidazol-6-yl)-2-(2,2,2-trifluoroethoxy)-1,6-naphthyridin-7(6H)-one]: the IC50 in assay [1] is below 100 nM; with HCT116 MTAP−/−, below 100 nM; in the assay with HCT116 MTAP+/+ it was 100 to 10000 nM; at MAT2A homodimer it was below 100 nM.

As to `[2H]C([2H])([2H])Oc1ccc(-c2c(=O)n(-c3ccc4nn(C)cc4c3)cc3ccc(OCC)nc23)cc1` [Example 117-A], the IC50 in assay [1] was below 100 nM; with HCT116 MTAP−/−, below 100 nM; with HCT116 MTAP+/+, 100 to 10000 nM; at MAT2A homodimer it was below 100 nM.
